Test results as given in ChEMBL document CHEMBL4699440, “Comprehensive review on the anti-bacterial activity of 1,2,3-triazole hybrids” (Eur J Med Chem, 2019).
Converted amounts (≈) assume the structure as drawn.

Tests used:
[1] = system: Candida albicans; test: Antibacterial activity against Candida albicans MTCC 227 by serial dilution method; format: functional
[2] = system: Staphylococcus epidermidis; test: Antibacterial activity against Staphylococcus epidermidis MTCC 6880 by serial dilution method; format: functional
[3] = system: Aspergillus niger; test: Antibacterial activity against Aspergillus niger MTCC 8189 by serial dilution method; format: functional
[4] = system: Escherichia coli; test: Antibacterial activity against Escherichia coli MTCC […] by serial dilution method; format: functional
[5] = system: Bacillus subtilis; test: Antibacterial activity against Bacillus subtilis MTCC 441 by serial dilution method; format: functional
[6] = system: Pseudomonas aeruginosa; test: Antibacterial activity against Pseudomonas aeruginosa MTCC 424 by serial dilution method; format: functional
[7] = system: Staphylococcus aureus; test: Antibacterial activity against Staphylococcus aureus ATCC 12598 incubated for 24 hrs by broth microdilution method; format: functional
[8] = system: Escherichia coli; test: Antibacterial activity against Escherichia coli ATCC 25922 incubated for 24 hrs by broth microdilution method; format: functional
[9] = system: Pseudomonas aeruginosa; test: Antibacterial activity against Pseudomonas aeruginosa ATCC 25619 incubated for 24 hrs by broth microdilution method; format: functional
[10] = system: Bacillus subtilis; test: Antibacterial activity against Bacillus subtilis ATCC 6051 incubated for 24 hrs by broth microdilution method; format: functional
[11] = system: Klebsiella pneumoniae; test: Antibacterial activity against Klebsiella pneumoniae assessed as inhibition zone at 10 mg/ml; format: functional; conditions: read-out: IZ
[12] = system: Salmonella typhi; test: Antibacterial activity against Salmonella typhi assessed as inhibition zone at 10 mg/ml; format: functional, Salmonella enterica subsp. enterica serovar Typhi; conditions: Salmonella enterica, read-out: IZ
[13] = system: Proteus vulgaris; test: Antibacterial activity against Proteus vulgaris assessed as inhibition zone at 10 mg/ml; format: functional; conditions: read-out: IZ
[14] = system: Pseudomonas aeruginosa; test: Antibacterial activity against Pseudomonas aeruginosa assessed as inhibition zone at 10 mg/ml; format: functional; conditions: read-out: IZ
[15] = system: Escherichia coli; test: Antibacterial activity against Escherichia coli assessed as inhibition zone at 10 mg/ml; format: functional; conditions: read-out: IZ

SMILES	MIC [1] [µM]	MIC [2] [µM]	MIC [3] [µM]	MIC [4] [µM]	MIC [5] [µM]	MIC [6] [µM]	MIC [7] [µg/mL]	MIC [8] [µg/mL]	MIC [9] [µg/mL]	MIC [10] [µg/mL]	zone of inhibition at 10000 µg/mL [11] [mm]	zone of inhibition at 10000 µg/mL [12] [mm]	zone of inhibition at 10000 µg/mL [13] [mm]	zone of inhibition at 10000 µg/mL [14] [mm]	zone of inhibition at 10000 µg/mL [15] [mm]
Cc1cc(O)c(C(=O)/C=C/c2ccc(OCc3cn(Cc4cccc(Br)c4)nn3)cc2)c(=O)o1	3 (≈ 1.57 µg/mL)	3 (≈ 1.57 µg/mL)	3 (≈ 1.57 µg/mL)	3 (≈ 1.57 µg/mL)	3 (≈ 1.57 µg/mL)	3 (≈ 1.57 µg/mL)									
Cc1cc(O)c(C(=O)/C=C/c2ccc(OCc3cn(Cc4ccccc4C)nn3)cc2)c(=O)o1	3 (≈ 1.37 µg/mL)	3 (≈ 1.37 µg/mL)	3 (≈ 1.37 µg/mL)	3 (≈ 1.37 µg/mL)	3 (≈ 1.37 µg/mL)	3 (≈ 1.37 µg/mL)									
CN[C@@H]1[C@H](O[C@H]2[C@H](O[C@H]3[C@H](O)[C@@H](O)[C@H](N=C(N)N)[C@@H](O)[C@@H]3N=C(N)N)O[C@@H](C)[C@]2(O)C=O)O[C@@H](CO)[C@H](O)[C@H]1O [STREPTOMYCIN]							2 (≈ 3.44 µM)	2 (≈ 3.44 µM)	4 (≈ 6.88 µM)	2 (≈ 3.44 µM)					
CC(=O)Nc1ccc(OCc2cn(Cc3cc4cc(C)ccc4nc3Cl)nn2)cc1											7	7	7	7	7
COc1ccc2nc(Cl)c(Cn3cc(COc4ccc(Cl)cc4)nn3)cc2c1											7	7	7	7	7
Cc1cc(OCc2cn(Cc3cc4ccccc4nc3Cl)nn2)ccc1Cl											7	7	7	7	7
COc1ccc2nc(Cl)c(Cn3cc(COc4ccc(C)cc4)nn3)cc2c1											7	7	7	7	7
Cc1cc(O)c(C(=O)/C=C/c2ccc(OCc3cn(-c4ccccc4)nn3)cc2)c(=O)o1	3 (≈ 1.29 µg/mL)	3 (≈ 1.29 µg/mL)	3 (≈ 1.29 µg/mL)	3 (≈ 1.29 µg/mL)	3 (≈ 1.29 µg/mL)	3 (≈ 1.29 µg/mL)									
COc1ccc2nc(Cl)c(Cn3cc(COc4ccc(NC(C)=O)cc4)nn3)cc2c1											7	7	7	7	7
O=[N+]([O-])c1ccc(OCc2cn(Cc3cc4ccccc4nc3Cl)nn2)cc1											7	7	7	7	7
COc1ccc2nc(Cl)c(Cn3cc(COc4ccccc4Cl)nn3)cc2c1											7	7	7	7	7
Cc1cc(O)c(C(=O)/C=C/c2ccc(OCc3cn(Cc4ccccc4F)nn3)cc2)c(=O)o1	3 (≈ 1.38 µg/mL)	3 (≈ 1.38 µg/mL)	3 (≈ 1.38 µg/mL)	3 (≈ 1.38 µg/mL)	3 (≈ 1.38 µg/mL)	3 (≈ 1.38 µg/mL)									
Cc1cc(O)c(C(=O)/C=C/c2ccc(OCc3cn(Cc4ccc([N+](=O)[O-])cc4)nn3)cc2)c(=O)o1	3 (≈ 1.47 µg/mL)	3 (≈ 1.47 µg/mL)	3 (≈ 1.47 µg/mL)	3 (≈ 1.47 µg/mL)	3 (≈ 1.47 µg/mL)	3 (≈ 1.47 µg/mL)									
Clc1ccccc1OCc1cn(Cc2cc3ccccc3nc2Cl)nn1											7	7	7	7	7
Cc1ccc(OCc2cn(Cc3cc4ccccc4nc3Cl)nn2)cc1											7	7	7	7	7
Cc1ccc2nc(Cl)c(Cn3cc(COc4ccc(Cl)c(C)c4)nn3)cc2c1											7	7	7	7	7
Cc1cc(O)c(C(=O)/C=C/c2ccc(OCc3cn(Cc4ccc(F)cc4)nn3)cc2)c(=O)o1	3 (≈ 1.38 µg/mL)	3 (≈ 1.38 µg/mL)	3 (≈ 1.38 µg/mL)	3 (≈ 1.38 µg/mL)	3 (≈ 1.38 µg/mL)	3 (≈ 1.38 µg/mL)									
Cc1cc(O)c(C(=O)/C=C/c2ccc(OCc3cn(Cc4cccc(F)c4)nn3)cc2)c(=O)o1	3 (≈ 1.38 µg/mL)	3 (≈ 1.38 µg/mL)	3 (≈ 1.38 µg/mL)	3 (≈ 1.38 µg/mL)	3 (≈ 1.38 µg/mL)	3 (≈ 1.38 µg/mL)									
Cc1cc(O)c(C(=O)/C=C/c2ccc(OCc3cn(Cc4ccc(Br)cc4)nn3)cc2)c(=O)o1	3 (≈ 1.57 µg/mL)	3 (≈ 1.57 µg/mL)	3 (≈ 1.57 µg/mL)	3 (≈ 1.57 µg/mL)	3 (≈ 1.57 µg/mL)	3 (≈ 1.57 µg/mL)									
